The values below are quoted from earlier work in publication PMC10766353, “Oral FXIIa inhibitor KV998086 suppresses FXIIa and single chain FXII mediated kallikrein kinin system activation” (Frontiers in Pharmacology, 2023).

Data set [1] deals with HAE attacks. Set-up: method as in Craig et al., 2023. As to conditions: six-month study, ref Craig et al., 2023.
Data set [2] has as its system HAE attacks. Further details: method as in Banerji et al., 2018. As to conditions: 26-week phase 3 study; ref Banerji et al., 2018.

Like-named read-outs stand apart in the source and are kept apart here.

For the molecule “garadacimab: a monoclonal antibody that inhibits FXIIa”, the HAE attack reduction in data set [1] (monthly administration) is on record as 87%. Also, in data set [1], the patients attack free is reported as 62%.

B1: lanadelumab: monoclonal antibody PKa inhibitor (antibody, chains of the INN, looked up, V domains shown)
VH: EVQLLESGGGLVQPGGSLRLSCAASGFTFSHYIMMWVRQAPGKGLEWVSGIYSSGGITVYADSVKGRFTISRDNSKNTLYLQMNSLRAEDTAVYYCAYRRIGVPRRDEFDIWGQGTMVTVSS
VL: DIQMTQSPSTLSASVGDRVTITCRASQSISSWLAWYQQKPGKAPKLLIYKASTLESGVPSRFSGSGSGTEFTLTISSLQPDDFATYYCQQYNTYWTFGQGTKVEIK
On to B1, for which, in data set [2], the HAE attack reduction is given as 87% and the patients attack free is 44%.
